The text below walks through data of patent publication US11273172B2, “Synergistic combination of oligonucleotides and chemotherapeutic for treating cancer” (THE BOARD OF TRUSTEES OF THE UNIVERSITY OF ILLINOIS, priority 2017, dated 2022).

Where “and” joins values, the source holds several entries; their conditions need not be identical. Equal entries are not always repeated.

Test in all cases: MTT cell death assay, chemotherapeutic with and without MADD siRNA knockdown
What all share (format): cell-based
Conditions in all cases: siRNA 10 nM
Background: Tetrazolium assays rely on reduction of a dye to a coloured formazan, in cell work by metabolically active cells.

For data set [1], the system named is SU.86.86 pancreatic cancer cells. How it is done:
(§1) Cells are cultured and maintained at 37° C. in a humidified atmosphere containing 5% CO2 as described above. On Day 0, Cells are seeded in […] tissue culture dishes (Corning; Cat Number: 353003) to attain 60-70% confluence. In parallel, cells are also seeded in one 96-well plate (Corning; Cat number: 353072) for analysis of survival before reseeding. After 12-18 hours (Day 1), cells are transfected with Scramble or MADD siRNA at 10 nM concentration. The sequences of siRNAs (double-stranded) used are:
(§2) On Day 4, when cells are properly adhered and retained their shape in 96-well plates, drugs are added. All drugs are diluted in complete media on the same day prior to the addition to the cells. In untreated cells, media is replaced with complete media. Two hundred μl volume of media (with or without drugs) is used for the drug treatment assay. Plates are incubated 24 hours, 48 hours and 72 hours at 37° C. in humidified CO2 incubator.
(§3) An MTT assay is performed to determine relative survival after drug treatment as described above. MTT (3-[4,5-Dimethylthiazol-2-yl]-2,5-diphenyltetrazolium bromide; Thiazolyl blue) is purchased from Sigma Aldrich (Cat number: M5655). MTT is dissolved in sterile DPBS at the concentration of 5 mg/ml and filtered through 0.45 μM syringe filter (Corning; Cat number: 431220). Ten μl of MTT solution is added per well of 96-well plate. Plates are incubated for 2 hours at 37° C. in the humidified CO2 incubator. After 2 hours, media is aspirated using vacuum inside the biosafety hood. Purple colored crystals formed in viable cells are dissolved by adding 100 μl of Dimethyl sulfoxide (Thermo Fisher Scientific; Cat number D128-500) Plates are kept on shaker for 10 minutes for compete dissolution of crystals and absorbance is recorded at 595 nm using Bio-Rad iMark microplate reader. Data is analyzed in MICROSOFT EXCEL® software. Relative survival is calculated with respect to absorbance of control (untreated cells) to determine the effect of transfection as well as combination treatment.
(§4) Each data set takes into account any spontaneous cell death which is observed upon transfection with Scramble siRNA; the amount of spontaneous cell death from Scramble siRNA transfection (baseline) is subtracted from the amount of cell death observed in each siRNA transfection reaction to yield a Net Percent (Net %) cell death after accounting for Scrambled siRNA-induced cell death.
(§5) Cells are cultured and maintained at 37° C. in a humidified atmosphere containing 5% CO2 as described above. On Day 0, Cells are seeded in […] tissue culture dishes (Corning; Cat Number: 353003) to attain 60-70% confluence. In parallel, cells are also seeded in one 96-well plate (Corning; Cat number: 353072) for analysis of survival before reseeding. After 12-18 hours (Day 1), cells are transfected with Scramble or MADD siRNA at 10 nM concentration. The sequences of siRNAs (double stranded) used are:
(§6) On Day 4, when cells are properly adhered and retained their shape in 96-well plates, drugs are added. Doxorubicin was added at a working concentration of 5.0 nM, 9.375 nM, 0.075 μM, 0.25 μM, 0.5 μM, and 0.8 μM. All drugs are diluted in complete media on the same day prior to the addition to the cells. In untreated cells, media is replaced with complete media. Two hundred μl volume of media (with or without drugs) is used for the drug treatment assay. Plates are incubated 24 hours, 48 hours and 72 hours at 37° C. in humidified CO2 incubator.
(§7) An MTT assay is performed to determine relative survival after drug treatment as described above. MTT (3-[4,5-Dimethylthiazol-2-yl]-2,5-diphenyltetrazolium bromide; Thiazolyl blue) is purchased from Sigma Aldrich (Cat number: M5655). MTT is dissolved in sterile DPBS at the concentration of 5 mg/ml and filtered through […] syringe filter (Corning; Cat number: 431220). Ten μl of MTT solution is added per well of 96-well plate. Plates are incubated for 2 hours at 37° C. in the humidified CO2 incubator. […]

The test system of a further data set is H2227 lung cancer cells. The protocol: as §1, §2, §3, §4, §5, §6, §7
Data set [2] concerns K562 chronic myelogenous leukemia cells. How it is done: as §1, §2, §3, §4, §5, §6, §7
Data set [3] concerns 8505C thyroid cancer cells. How it is done:
Cells are cultured and maintained at 37° C. in a humidified atmosphere containing 5% CO2 as described above. […] After 12-18 hours (Day 1), cells are transfected with Scramble or MADD siRNA at 10 nM concentration. The sequences of siRNAs (double stranded) used are:
On Day 4, when cells are properly adhered and retained their shape in 96-well plates, drugs are added. All drugs are diluted in complete media on the same day prior to the addition to the cells. In untreated cells, media is replaced with complete media. Two hundred μl volume of media (with or without drugs) is used for the drug treatment assay. Plates are incubated 24 h, 48 h and 72 hours at 37° C. in humidified CO2 incubator.
as §3, with “MTT is dissolved in sterile DPBS at the concentration of 5 mg/ml and filtered through 0.45 μM syringe filter (Corning; Cat number: 431220).” left out
as §4, §2

Setting [4] is: Doxorubicin 5 nM, 24 hours post Doxorubicin treatment.
[5] abbreviates: Sorafinib 1.25 μM, 72 hours post-Sorafinib treatment.
Where [6] appears, read: Sorafinib 5 μM, 24 hours post Sorafinib treatment.
Where [7] appears, read: Doxorubicin 9.375 nM, 48 hours post Doxorubicin treatment.
[8] abbreviates: Gemcitabine 25 nM, 48 hours post Gemcitabine treatment.
The mark [9] stands for this setting: Sorafinib 3 μM, 48 hours post Sorafinib treatment.
Setting [10] is: Doxorubicin 0.25 μM, 72 hours post Doxorubicin treatment.
Setting [11] is: Doxorubicin 0.5 μM, 48 hours post Doxorubicin treatment.
Setting [12] is: Sorafinib 0.3125 μM, 72 hours post Sorafinib treatment.
Setting [13] is: Sorafinib 1.25 μM, 48 hours post Sorafinib treatment.
Where [14] appears, read: TRAIL 6.25 ng/ml, 72 hours post TRAIL treatment.
[15] abbreviates: TRAIL 12.5 ng/ml, 48 hours post TRAIL treatment.
[16] abbreviates: 8505C thyroid cancer cells, TRAIL 6.25 ng/ml, 48 hours post TRAIL treatment.
Setting [17] is: 8505C, Cisplatin 2.5 μM, 48 hours post Cisplatin treatment.
The mark [18] stands for this setting: 8508C thyroid cancer cells, TRAIL 6.25 ng/ml, 48 hours post TRAIL treatment.

With “MADD siRNA: siRNA targeting exon 13L of the MADD splice variant of the IG20 gene; SEQ ID NO: 4, 5′-GAUUGUCAUAGAUUCGCCGTT-3′ (chemistry not given here)”, the “Net % cell death after accounting for Scrambled siRNA” value (shortened to “Net % cell death after accounting”) in data set [1] (setting [4]) is 0% and 9 − 11 = 0%; in data set [1] (setting [6]) it was 0% and 9 − 11 = 0%; in data set [2] (setting [10]), 47% and 59 − 12 = 47%; in data set [2] (setting [12]) it was 47% and 59 − 12 = 47%; in data set [2] (setting [14]) it was 47% and 59 − 12 = 47%; in data set [3] (setting [16]), 39% and 49 − 10 = 39%. The “Net % cell death after accounting” value in data set [3] (setting [17]) was 39% and 49 − 10 = 39%. Besides, the “Observed % Cell death” value in data set [1] (setting [4]) is 9%; in data set [1] (setting [5]), 41%; in data set [1] (setting [6]), 9%; with H2227 lung cancer cells (setting [7]) it was 35%; in the data set on H2227 lung cancer cells (setting [8]), 35%; in the data set with H2227 lung cancer cells (setting [9]), 35%. For the same molecule, the “Observed % Cell death” value in data set [2] (setting [10]) came out at 59%; in data set [2] (setting [11]), 53%; in data set [2] (setting [12]), 59%; in data set [2] (setting [13]) it was 53%; in data set [2] (setting [14]), 59%; in data set [2] (setting [15]), 53%. In addition, the “Observed % Cell death” value in data set [3] (setting [17]) and in data set [3] (setting [18]) was 49% in each case.
Turning to `CNC(=O)c1cc(Oc2ccc(NC(=O)Nc3ccc(Cl)c(C(F)(F)F)c3)cc2)ccn1` [Sorafinib], the “Net % cell death after accounting” value in data set [1] (setting [5]) was 0%; in data set [1] (setting [6]) it was 17%; in the data set on H2227 lung cancer cells (setting [9]) it was 18%; in data set [2] (setting [12]) it was 0%; in data set [2] (setting [13]), 0%. The “Observed % Cell death” value in data set [1] (setting [5]) stood at 0%; in data set [1] (setting [6]), 17%; in the data set on H2227 lung cancer cells (setting [9]) it was 18%; in data set [2] (setting [12]), 0%; in data set [2] (setting [13]), 0%.
“Scrambled siRNA: non-specific Scramble siRNA, negative control; SEQ ID NO: 5, 5′-UUGCUAAGCGUCGGUCAAUTT-3′ (chemistry not given here)”: the “Net % cell death after accounting” value in data set [1] (setting [4]) was 11 − 11 = 0%; in data set [1] (setting [5]) it was 28 − 28 = 0%; in data set [1] (setting [6]), 11 − 11 = 0%; with H2227 lung cancer cells (setting [7]) it was 28 − 28 = 0%; in the data set on H2227 lung cancer cells (setting [8]) it was 28 − 28 = 0%; in the data set on H2227 lung cancer cells (setting [9]), 28 − 28 = 0%. Besides, the “Net % cell death after accounting” value in data set [2] (setting [10]) was 12 − 12 = 0%; in data set [2] (setting [11]) it was 49 − 49 = 0%; in data set [2] (setting [12]), 12 − 12 = 0%; in data set [2] (setting [13]) it was 49 − 49 = 0%; in data set [2] (setting [14]), 12 − 12 = 0%; in data set [2] (setting [15]) it was 49 − 49 = 0%. In addition, the “Net % cell death after accounting” value in data set [3] (setting [16]) is 10 − 10 = 0%; in data set [3] (setting [17]), 10%. For the same molecule, the “Observed % Cell death” value is given as 11% in data set [1] (setting [4]); 28% in data set [1] (setting [5]); 11% in data set [1] (setting [6]); 28% with H2227 lung cancer cells (setting [7]); 28% in the data set with H2227 lung cancer cells (setting [8]); 28% with H2227 lung cancer cells (setting [9]). Further, the “Observed % Cell death” value in data set [2] (setting [10]) is on record as 12%; in data set [2] (setting [11]), 49%; in data set [2] (setting [12]) it was 12%; in data set [2] (setting [13]) it was 49%; in data set [2] (setting [14]), 12%; in data set [2] (setting [15]), 49%. In addition, the “Observed % Cell death” value in data set [3] (setting [17]) and in data set [3] (setting [18]) was 10% throughout.

B1: TRAIL: cytotoxic protein which induces apoptosis in tumor cells, but not in normal cells (protein, UniProt P50591 1-281, looked up)
Tumor necrosis factor ligand …: MAMMEVQGGPSLGQTCVLIVIFTVLLQSLCVAVTYVYFTNELKQMQDKYSKSGIACFLKEDDSYWDPNDEESMNSPCWQVKWQLRQLVRKMILRTSEETISTVQEKQQNISPLVRERGPQRVAAHITGTRGRSNTLSSPNSKNEKALGRKINSWESSRSGHSFLSNLHLRNGELVIHEKGFYYIYSQTYFRFQEEIKENTKNDKQMVQYIYKYTSYPDPILLMKSARNSCWSKDAEYGLYSIYQGGIFELKENDRIFVSVTNEHLIDMDHEASFFGAFLVG
On to B1, for which the “Net % cell death after accounting” value is 0% in data set [2] (setting [14]); 0% in data set [2] (setting [15]); 6.56% and 7% in data set [3] (setting [16]). The “Observed % Cell death” value in data set [2] (setting [14]) is given as 0%; in data set [2] (setting [15]), 0%; in data set [3] (setting [18]), 7%.
